Numbers after ± are expanded uncertainties.
Assay: mn = molality of the nth substance listed, in mol/kg
Conditions: Liquid, Constant-volume piezometry

## CCCO [propan-1-ol] + O
383.2 K, 3256 kPa, m1 = 7.407
  mass density: 879.4 ± 1.1 kg/m3
383.2 K, 6865 kPa, m1 = 7.407
  mass density: 881.7 ± 1.1 kg/m3
383.2 K, 12651 kPa, m1 = 7.407
  mass density: 885.3 ± 1.1 kg/m3
393.03 K, 3256 kPa, m1 = 14.38
  mass density: 830.8 ± 1 kg/m3
393.03 K, 6453 kPa, m1 = 14.38
  mass density: 833.7 ± 1 kg/m3
393.03 K, 9885 kPa, m1 = 14.38
  mass density: 836.6 ± 1 kg/m3
393.03 K, 13239 kPa, m1 = 14.38
  mass density: 838.9 ± 1 kg/m3
394.81 K, 3472 kPa, m1 = 2.531
  mass density: 911.1 ± 1.1 kg/m3
394.81 K, 7845 kPa, m1 = 2.531
  mass density: 913.4 ± 1.1 kg/m3
394.81 K, 11768 kPa, m1 = 2.531
  mass density: 915.6 ± 1.1 kg/m3
398.15 K, 5000 kPa, m1 = 0.869
  mass density: 932 ± 1.1 kg/m3
398.15 K, 5000 kPa, m1 = 2.465
  mass density: 912.7 ± 1.1 kg/m3
398.15 K, 10000 kPa, m1 = 0.869
  mass density: 934.6 ± 1.1 kg/m3
398.15 K, 10000 kPa, m1 = 2.465
  mass density: 915.5 ± 1.1 kg/m3
398.15 K, 20000 kPa, m1 = 0.869
  mass density: 939.5 ± 1.2 kg/m3
398.15 K, 20000 kPa, m1 = 2.465
  mass density: 920.8 ± 1.1 kg/m3
398.15 K, 30000 kPa, m1 = 0.869
  mass density: 943.9 ± 1.2 kg/m3
398.15 K, 30000 kPa, m1 = 2.465
  mass density: 925.7 ± 1.2 kg/m3
398.15 K, 40000 kPa, m1 = 0.869
  mass density: 948 ± 1.2 kg/m3
398.15 K, 40000 kPa, m1 = 2.465
  mass density: 930.1 ± 1.2 kg/m3
410.72 K, 3923 kPa, m1 = 56.35
  mass density: 771.4 ± 0.9 kg/m3
410.72 K, 10787 kPa, m1 = 56.35
  mass density: 780.5 ± 1 kg/m3
423.15 K, 5000 kPa, m1 = 0.869
  mass density: 909.2 ± 1.1 kg/m3
423.15 K, 5000 kPa, m1 = 2.465
  mass density: 888.1 ± 1.1 kg/m3
423.15 K, 10000 kPa, m1 = 0.869
  mass density: 912.1 ± 1.1 kg/m3
423.15 K, 10000 kPa, m1 = 2.465
  mass density: 891.4 ± 1.1 kg/m3
423.15 K, 20000 kPa, m1 = 0.869
  mass density: 917.6 ± 1.1 kg/m3
423.15 K, 20000 kPa, m1 = 2.465
  mass density: 897.5 ± 1.1 kg/m3
423.15 K, 30000 kPa, m1 = 0.869
  mass density: 922.6 ± 1.2 kg/m3
423.15 K, 30000 kPa, m1 = 2.465
  mass density: 903.1 ± 1.1 kg/m3
423.15 K, 40000 kPa, m1 = 0.869
  mass density: 927 ± 1.2 kg/m3
423.15 K, 40000 kPa, m1 = 2.465
  mass density: 908 ± 1.2 kg/m3
423.61 K, 3432 kPa, m1 = 14.38
  mass density: 797.3 ± 1 kg/m3
423.61 K, 6453 kPa, m1 = 14.38
  mass density: 800.5 ± 1 kg/m3
423.61 K, 10042 kPa, m1 = 14.38
  mass density: 804.1 ± 1 kg/m3
423.61 K, 12827 kPa, m1 = 14.38
  mass density: 806.4 ± 1 kg/m3
426.33 K, 3668 kPa, m1 = 2.531
  mass density: 880.3 ± 1.1 kg/m3
426.33 K, 6865 kPa, m1 = 2.531
  mass density: 882.1 ± 1.1 kg/m3
426.33 K, 10787 kPa, m1 = 2.531
  mass density: 884.4 ± 1.1 kg/m3
427.06 K, 4001 kPa, m1 = 7.407
  mass density: 834.6 ± 1 kg/m3
427.06 K, 6453 kPa, m1 = 7.407
  mass density: 836.9 ± 1 kg/m3
427.06 K, 10375 kPa, m1 = 7.407
  mass density: 839.8 ± 1 kg/m3
448.15 K, 5000 kPa, m1 = 0.869
  mass density: 883 ± 1.1 kg/m3
448.15 K, 5000 kPa, m1 = 2.465
  mass density: 860.5 ± 1.1 kg/m3
448.15 K, 10000 kPa, m1 = 0.869
  mass density: 886.4 ± 1.1 kg/m3
448.15 K, 10000 kPa, m1 = 2.465
  mass density: 864.4 ± 1.1 kg/m3
448.15 K, 20000 kPa, m1 = 0.869
  mass density: 892.7 ± 1.1 kg/m3
448.15 K, 20000 kPa, m1 = 2.465
  mass density: 871.5 ± 1.1 kg/m3
448.15 K, 30000 kPa, m1 = 0.869
  mass density: 898.3 ± 1.2 kg/m3
448.15 K, 30000 kPa, m1 = 2.465
  mass density: 877.9 ± 1.1 kg/m3
448.15 K, 40000 kPa, m1 = 0.869
  mass density: 903.2 ± 1.2 kg/m3
448.15 K, 40000 kPa, m1 = 2.465
  mass density: 883.5 ± 1.2 kg/m3
457.85 K, 3589 kPa, m1 = 14.38
  mass density: 754.1 ± 0.9 kg/m3
457.85 K, 8198 kPa, m1 = 14.38
  mass density: 760.4 ± 0.9 kg/m3
457.85 K, 13141 kPa, m1 = 14.38
  mass density: 766.1 ± 1 kg/m3
463.81 K, 4805 kPa, m1 = 7.407
  mass density: 790.8 ± 1 kg/m3
463.81 K, 7355 kPa, m1 = 7.407
  mass density: 793.5 ± 1 kg/m3
463.81 K, 10787 kPa, m1 = 7.407
  mass density: 796.8 ± 1 kg/m3
472.74 K, 3668 kPa, m1 = 2.531
  mass density: 826.7 ± 1 kg/m3
472.74 K, 6531 kPa, m1 = 2.531
  mass density: 829.7 ± 1 kg/m3
472.74 K, 10297 kPa, m1 = 2.531
  mass density: 832.6 ± 1 kg/m3
486.26 K, 7512 kPa, m1 = 56.35
  mass density: 668.9 ± 0.8 kg/m3
486.26 K, 11278 kPa, m1 = 56.35
  mass density: 680.2 ± 0.9 kg/m3
500.33 K, 4982 kPa, m1 = 2.531
  mass density: 790 ± 1 kg/m3
500.33 K, 7100 kPa, m1 = 2.531
  mass density: 792.6 ± 1 kg/m3
500.33 K, 9316 kPa, m1 = 2.531
  mass density: 794.5 ± 1 kg/m3
501.66 K, 4491 kPa, m1 = 14.38
  mass density: 685 ± 0.9 kg/m3
501.66 K, 6943 kPa, m1 = 14.38
  mass density: 691.7 ± 0.9 kg/m3
501.66 K, 10415 kPa, m1 = 14.38
  mass density: 699.7 ± 0.9 kg/m3
501.66 K, 14298 kPa, m1 = 14.38
  mass density: 706.5 ± 0.9 kg/m3
504.03 K, 4805 kPa, m1 = 7.407
  mass density: 730.7 ± 0.9 kg/m3
504.03 K, 7669 kPa, m1 = 7.407
  mass density: 735.5 ± 0.9 kg/m3
504.03 K, 9807 kPa, m1 = 7.407
  mass density: 739.6 ± 0.9 kg/m3
504.03 K, 10866 kPa, m1 = 7.407
  mass density: 741.9 ± 0.9 kg/m3
536.99 K, 10160 kPa, m1 = 56.35
  mass density: 558.4 ± 0.7 kg/m3
536.99 K, 11140 kPa, m1 = 56.35
  mass density: 566.4 ± 0.9 kg/m3
536.99 K, 11591 kPa, m1 = 56.35
  mass density: 573.2 ± 1.7 kg/m3
537.32 K, 9885 kPa, m1 = 14.38
  mass density: 619.3 ± 0.8 kg/m3
537.32 K, 10611 kPa, m1 = 14.38
  mass density: 628.3 ± 0.8 kg/m3
537.32 K, 14298 kPa, m1 = 14.38
  mass density: 642.1 ± 0.8 kg/m3
538.96 K, 7433 kPa, m1 = 2.531
  mass density: 728.6 ± 0.9 kg/m3
538.96 K, 8649 kPa, m1 = 2.531
  mass density: 731.3 ± 0.9 kg/m3
538.96 K, 11023 kPa, m1 = 2.531
  mass density: 736.1 ± 0.9 kg/m3
543.97 K, 7335 kPa, m1 = 7.407
  mass density: 653.7 ± 0.8 kg/m3
543.97 K, 10532 kPa, m1 = 7.407
  mass density: 666.5 ± 0.9 kg/m3
543.97 K, 12749 kPa, m1 = 7.407
  mass density: 673.5 ± 0.9 kg/m3
574.64 K, 11886 kPa, m1 = 56.35
  mass density: 322.1 ± 1 kg/m3
574.64 K, 13082 kPa, m1 = 56.35
  mass density: 409.5 ± 1 kg/m3
574.64 K, 14004 kPa, m1 = 56.35
  mass density: 441.1 ± 0.8 kg/m3
574.64 K, 14509 kPa, m1 = 56.35
  mass density: 456.5 ± 0.7 kg/m3
574.64 K, 15043 kPa, m1 = 56.35
  mass density: 468 ± 0.7 kg/m3
575.95 K, 11768 kPa, m1 = 14.38
  mass density: 437.4 ± 3.9 kg/m3
575.95 K, 11886 kPa, m1 = 14.38
  mass density: 475.9 ± 4 kg/m3
575.95 K, 13317 kPa, m1 = 14.38
  mass density: 509.3 ± 0.7 kg/m3
575.95 K, 13729 kPa, m1 = 14.38
  mass density: 521.1 ± 0.8 kg/m3
577.86 K, 11717 kPa, m1 = 2.531
  mass density: 643.6 ± 2.2 kg/m3
577.86 K, 11768 kPa, m1 = 2.531
  mass density: 652.5 ± 2.2 kg/m3
577.86 K, 12160 kPa, m1 = 2.531
  mass density: 656.7 ± 0.9 kg/m3
582.08 K, 12239 kPa, m1 = 7.407
  mass density: 540 ± 0.8 kg/m3
582.08 K, 12866 kPa, m1 = 7.407
  mass density: 557.8 ± 0.8 kg/m3
582.08 K, 13670 kPa, m1 = 7.407
  mass density: 567.6 ± 0.8 kg/m3
582.08 K, 14377 kPa, m1 = 7.407
  mass density: 576.7 ± 0.8 kg/m3
